Measured values: patent publication US12178840B2, “Method and compositions comprising a CT20 peptide” (UNIVERSITY OF CENTRAL FLORIDA RESEARCH FOUNDATION, INC., priority 2014, dated 2024)
Residues, ends and D or L forms follow the SMILES beside them.

Columns and labels:
MCF-10A cells = experiment: Biological effects of CT20 in HBPE-NPs in normal control epithelial cells; assay type: cell-based, human; conditions: CT20 (˜3.4 nM) in HBPE-NPs
Experimental: This triggered hyperpolarization of the mitochondrial membrane and fusion-like aggregation (FIG. 3B) that impaired mitochondrial redistribution, ATP production, and F-actin polymerization (FIG. 3C). Cells remained viable during these “initiating events” (FIG. 3D). However, at 6 hours post-CT20 treatment, cells began detaching from the substrate (fibronectin) (FIG. 3E). This was preceded by decreased expression of integrins (β1 integrin is shown; FIG. 3F). By 24 hours post-CT20 treatment, “effector events” caused by peptide-induced detachment were detected, including the activation of caspases (FIG. 3G), the induction of autophagy (FIG. 3H), and increased ROS production (FIG. 3I). Cell death (anoikis), indicated by membrane asymmetry, was detected in cancer cells by 48 hours (FIG. 3J).

[1] = target: T1, Purified recombinant CCTβ (Homo sapiens, UniProt P78371); experiment: Pull-down with purified recombinant CCTβ; assay type: binding; conditions: 0.1 nmol CCTβ, CT20p-Biotin 0.1 to 4 nmol
T1 construct: purchased MyBioSource; host or cells: E. coli
T1 sequence (P78371 1-535): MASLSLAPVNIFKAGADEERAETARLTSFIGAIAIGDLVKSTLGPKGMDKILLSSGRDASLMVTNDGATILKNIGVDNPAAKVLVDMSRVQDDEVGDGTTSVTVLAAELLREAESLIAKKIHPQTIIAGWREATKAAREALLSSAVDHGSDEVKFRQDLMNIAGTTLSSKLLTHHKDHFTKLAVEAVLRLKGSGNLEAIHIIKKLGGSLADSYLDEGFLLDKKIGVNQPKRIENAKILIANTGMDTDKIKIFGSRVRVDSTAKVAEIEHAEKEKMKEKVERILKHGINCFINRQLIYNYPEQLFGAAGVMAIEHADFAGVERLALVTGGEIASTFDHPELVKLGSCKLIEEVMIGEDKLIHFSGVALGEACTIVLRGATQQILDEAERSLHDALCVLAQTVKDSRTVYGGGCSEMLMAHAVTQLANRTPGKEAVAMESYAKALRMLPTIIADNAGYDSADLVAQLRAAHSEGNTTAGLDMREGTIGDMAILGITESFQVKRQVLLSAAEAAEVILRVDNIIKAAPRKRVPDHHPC
Experimental: FIG. 9 is representative data showing that CT20p binds directly to CCTβ. Purified recombinant CCTβ was tested for interaction with CT20p as described in Materials and Methods.
Pull down experiments: Lysate pull-downs were performed with 200 ug cell lysate, obtained by douncing as described above. Lysates were pre-cleared with streptavidin-agarose beads (Pierce), then incubated with […] of CT20-Biotin or biotin for 3 hours at room temperature, followed by overnight incubation at 4° C. with streptavidin-agarose beads. Beads were washed thoroughly with wash buffer (25 mM Tris, 150 mM NaCl, 0.1% NP40, pH7.4), then heated in 4× loading buffer (Invitrogen) for analysis by SDS-PAGE. Mass spectrometric analysis was performed by Moffit Cancer Center (Tampa, FL). Mass spectrometry results presented are of proteins with at least two unique peptides identified, and that were not recovered with biotin-only pull down. In-cell pull downs were performed by first delivering CT20p-Biotin encapsulated in nanoparticles to viable cells at a dose of 75 μg/mL for varying lengths of time. Following treatment, cells were collected and lysed by douncing. 200 ug of cell lysate were then incubated with streptavidin-agarose beads overnight at 4° C., and pull-down was completed as described above. […]

Question: What does the source list for `CC[C@H](C)[C@H](NC(=O)[C@@H](NC(=O)[C@H](CC(C)C)NC(=O)[C@H](CO)NC(=O)[C@H](C)NC(=O)[C@@H](NC(=O)[C@H](CC(C)C)NC(=O)[C@@H](NC(=O)CNC(=O)[C@H](C)NC(=O)[C@@H](NC(=O)[C@H](Cc1ccccc1)NC(=O)[C@@H](NC(=O)[C@@H](NC(=O)[C@@H](NC(C)=O)C(C)C)[C@@H](C)O)[C@@H](C)CC)C(C)C)C(C)C)[C@@H](C)O)[C@@H](C)O)C(=O)N[C@@H](Cc1c[nH]c2ccccc12)C(=O)N[C@@H](CCCCN)C(=O)N[C@@H](CCCCN)C(=O)N[C@@H](CCSC)C(=O)NCC(N)=O` [CT20] (Ac-VTIFVAGVLTASLTIWKKMG-NH2)?
Answer: Cytoskeletal impairment and cell death in control epithelial cell line (MCF-10A cells): not observed; Cytoskeletal impairment and cell death in control epithelial cell line (MCF-10A cells; listed as CT20 peptide): minimal cell death; Direct interaction with CCTβ [1]: does interact directly with CCTβ
